Tests used:
Theiler = test: CPE inhibition in mammalian cell culture, Theiler; assay type: cell-based; settings: Conc. 10 μM
Ljungan virus strain 012 = test: CPE inhibition in mammalian cell culture, LV012; assay type: cell-based; settings: Parechovirus B; Conc. 10 µM; read-out: antiviral effect, LV012
Ljungan virus strain 145 = test: CPE inhibition in mammalian cell culture, LV145; assay type: cell-based; design: inhibition: dose or concentration left out as unconfirmed; settings: Parechovirus B; Conc.; read-out: antiviral effect, LV145
[1] = system: encephalomyocarditis virus; test: CPE inhibition in mammalian cell culture, EMCV; assay type: cell-based; design: inhibition: dose or concentration left out as unconfirmed; settings: Cardiovirus A; Conc.; read-out: antiviral effect, EMCV
[2] = system: Human parechovirus strain 1; test: CPE inhibition in mammalian cell culture, HPeV-1; assay type: cell-based; settings: Parechovirus A; Conc. 10 µM; read-out: antiviral effect, HPeV-1
Porcine Tescho virus = test: microbe, parasite or virus in culture; assay type: cell-based; design: dose or concentration left out as unconfirmed; settings: Conc.; read-out: antiviral effect, PTV
Enterovirus strain 30 = test: CPE inhibition in mammalian cell culture, EV30; assay type: cell-based; settings: Conc. 10 µM, read-out: antiviral effect, EV30
Enterovirus strain 71 = test: CPE inhibition in mammalian cell culture, EV71; assay type: cell-based; design: inhibition: dose or concentration left out as unconfirmed
[3] = system: coxsackie B virus strain 1; test: CPE inhibition in mammalian cell culture, Cox-B1; assay type: cell-based; settings: read-out: antiviral effect, B1
[4] = system: coxsackie B virus strain 2; test: CPE inhibition in mammalian cell culture, Cox-B2; assay type: cell-based; settings: read-out: antiviral effect, B2
[5] = system: coxsackie B virus strain 4; test: CPE inhibition in mammalian cell culture, Cox-B4; assay type: cell-based; settings: read-out: antiviral effect, B4
[6] = system: coxsackie B virus strain 5; test: CPE inhibition in mammalian cell culture, Cox-B5; assay type: cell-based; settings: read-out: antiviral effect, B5
polio virus strain 1 = test: microbe, parasite or virus in culture; assay type: cell-based; settings: read-out: antiviral effect, Polio 1
[7] = system: Coxsackie B3 virus, Nancy strain; test: Anti-viral efficacy against Coxsackie virus in a neutropenic mouse model; assay type: in vivo, Male BALB/c mice; settings: neutropenic BALB/c mice, Coxsackie B3 i.p., 200 mg/kg once daily per orally from day 1 or day 3
Description: The FIGURE is a diagram showing the number of surviving animals as a function of the number of days after infections with Coxsackie B3 virus, in mice treated with the compound of Ex. 9, 200 mg/kg once daily per orally starting on day 1 (group 1) or on day 3 (group 2), and in mice treated with vehicle only (0.4% Tween 80, 2% glycerol and 15% β-hydroxypropyl cyclodextrin).
Evaluation of Anti-Viral Efficacy Against Coxsackie Virus in a Neutropenic Mouse Model Test System Male BALB/c mice, weighing 22-26 grams were used with 4 animals/group. Neutropenic induction: Cyclophosphamide Challenge organism: Coxsackie (human origin) virus CVB3 Route of infection: Intraperitoneal Route of administration: per oral End point: Cumulative survival
All experimental procedures involving animals were performed according to protocols approved by the Institutional Animal Ethics Committee of Anthem Biosciences. The mice, male BALB/c mice were housed 4 animals per cage and allowed access to feed and water ad libitum under controlled conditions. Mice were acclimatized for 7 days prior to the study. The animals were observed daily for general health during this period. […]
The animals were observed daily during the study period for signs of mortality, morbidity (paralysis) and signs of acute toxicity. Abnormal clinical signs were recorded if observed.

[8] = female Sprague Dawley rats, single dose
[9] = Sprague Dawley rats, 250 and 750 mg/kg body weight/day for 7 days

SMILES: Cc1cc(NCc2ccc(F)cc2)n2nc(C)c(-c3ccc(C(F)(F)F)cc3)c2n1 [Ex. 104, N-[(4-fluorophenyl)methyl]-2,5-dimethyl-3-[4-(trifluoromethyl)phenyl]pyrazolo[1,5-a]pyrimidin-7-amine]
- inhibition at 10 µM (Theiler): 59%

SMILES: COc1ccc(-c2c(C)nn3c(NCc4ccc(F)cc4)cc(C)nc23)cc1OC [Ex. 9, 3-(3,4-dimethoxyphenyl)-N-[(4-fluorophenyl)methyl]-2,5-dimethyl-pyrazolo[1,5-a]pyrimidin-7-amine]
- inhibition at 10 µM (Ljungan virus strain 012): 18%
- inhibition (Ljungan virus strain 145): 59%
- inhibition [1]: 14%
- inhibition at 10 µM [2]: 19%
- inhibition (Porcine Tescho virus): 23%
- inhibition at 10 µM (Enterovirus strain 30): 35%
- inhibition (Enterovirus strain 71; Conc., read-out: antiviral effect, EV71): 16%
- inhibition at 0.25 µM (Enterovirus strain 71; EV71, Conc. 0.25 μM): 93%
- inhibition at 10000 µM [3]: 53%
- inhibition at 10000 µM [4]: 76%
- inhibition at 10000 µM [5]: 48%
- inhibition at 10000 µM [6]: 73%
- inhibition at 10000 µM (polio virus strain 1): 91%
- Cumulative survival [7]: has an antiviral effect in vivo and can extend the life of the animals
- adverse clinical signs or mortality (BALB/C mice, 200 and 400 mg/kg body weight/day for 7 days): did not reveal any adverse clinical signs or mortality
- No Observed Adverse Effect Level (NOAEL) (mouse, in vivo, po): 400 mg/kg body weight/day
- maximum tolerable dose [8]: > 2000 mg/kg body weight
- adverse clinical signs and mortality [9]: adverse clinical signs in both sexes at 750 mg/kg and mortality in one female at 750 mg/kg
